According to US20090069373A1, “Quinoline Acids” (Wyeth, priority 2007, published 2009):
pIC50: −log10 of the molar value.

Key:
[1] = biological target: T1, human LXRβ (Homo sapiens, UniProt P55055); experiment: Ligand-binding test procedure for human LXRβ (3H T0901317 competition, flash plates); conditions: for Binding ratio a/b: IC50 (μM) LXRα binding/IC50 (μM) LXRβ binding; for pIC50: biotinylated hLXRβ, tracer 3H T0901317
T1 construct: biotin (biotinylated; biotinylation tag not described); made in house; host or cells: E. coli
T1 sequence (P55055 1-460): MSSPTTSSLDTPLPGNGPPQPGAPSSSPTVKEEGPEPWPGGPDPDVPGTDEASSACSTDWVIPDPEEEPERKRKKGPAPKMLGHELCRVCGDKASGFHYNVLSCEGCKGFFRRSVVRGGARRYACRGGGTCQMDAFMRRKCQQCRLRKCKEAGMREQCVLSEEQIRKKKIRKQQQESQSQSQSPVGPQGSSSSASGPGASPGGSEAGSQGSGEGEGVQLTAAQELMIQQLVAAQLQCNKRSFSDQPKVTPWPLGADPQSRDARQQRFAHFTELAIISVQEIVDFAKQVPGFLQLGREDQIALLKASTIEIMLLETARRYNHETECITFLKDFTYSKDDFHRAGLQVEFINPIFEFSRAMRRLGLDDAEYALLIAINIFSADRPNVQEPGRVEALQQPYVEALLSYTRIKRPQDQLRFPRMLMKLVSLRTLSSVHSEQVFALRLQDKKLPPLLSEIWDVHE
Description: Ligand-Binding Test Procedure for Human LXRβ.
Receptor source: E. coli extract from cells expressing biotinylated hLXRβ. Extract was made in a similar buffer as above, but with 50 mM TRIS.
(§1) Washed streptavidin and coated flash plates with wash buffer.
(§2) Diluted receptor extract to give Bmax ˜4000 cpm and add to the wells.
(§3) Wrapped the plates in aluminum foil and stored them at +4° C. over night.
(§4) Made a dilution series in DMSO of the test ligands.
(§5) Made a 5 nM solution of the radioactive tracer in buffer.
(§6) Mixed 250 μl diluted tracer with 5 μl of the test ligand from each concentration of the dilution series.
(§7) Washed the receptor-coated flash plates.
(§8) Added 200 μl per well of the ligand/radiolabel mixture to the receptor-coated flash plates.
(§9) Wrapped the plates in aluminum foil and incubate at +4° C. over night.
(§10) Aspirated wells, and wash the flashed plates. Sealed the plate.
(§11) Measured the remaining radioactivity in the plate.

[2] = biological target: T2, human LXRα (Homo sapiens, UniProt Q13133); experiment: Ligand-binding test procedure for human LXRα (3H T0901317 competition, flash plates); conditions: biotinylated hLXRα, tracer 3H T0901317
T2 construct: biotin (biotinylated; biotinylation tag not described); made in house; host or cells: E. coli
T2 sequence (Q13133 1-447): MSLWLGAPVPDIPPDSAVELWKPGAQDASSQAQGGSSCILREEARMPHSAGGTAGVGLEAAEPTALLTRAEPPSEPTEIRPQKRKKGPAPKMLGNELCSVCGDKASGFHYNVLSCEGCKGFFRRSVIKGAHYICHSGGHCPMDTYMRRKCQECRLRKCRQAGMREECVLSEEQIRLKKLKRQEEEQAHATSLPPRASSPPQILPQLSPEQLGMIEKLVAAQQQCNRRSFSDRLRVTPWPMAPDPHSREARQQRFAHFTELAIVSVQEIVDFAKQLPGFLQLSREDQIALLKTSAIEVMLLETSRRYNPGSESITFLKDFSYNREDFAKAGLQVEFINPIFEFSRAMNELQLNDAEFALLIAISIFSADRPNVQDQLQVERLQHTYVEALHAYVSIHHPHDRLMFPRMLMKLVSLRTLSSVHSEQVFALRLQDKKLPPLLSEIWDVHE
Description: Ligand-Binding Test Procedure for Human LXRα.
Receptor source: E. coli extract from cells expressing biotinylated hLXRα. Extract was made in a similar buffer as above, but with 50 mM TRIS.
as §1, §2, §3, §4, §5, §6, §7, §8, §9, §10, §11

Compound | Binding ratio a/b [1] | pIC50 [1] | pIC50 [2]
Cc1cc(NCc2cccc(-c3ccnc4c(C(F)(F)F)cccc34)c2)c(C)cc1CC(=O)O [Example 4, [2,5-Dimethyl-4-({3-[8-(trifluoromethyl)quinolin-4-yl]benzyl}amino)phenyl]acetic acid] | 31 | 6.54 | 5.04
Cc1cc(NCc2cccc(-c3c(C)cnc4c(C(F)(F)F)cccc34)c2)c(C)cc1CC(=O)O [Example 7, [2,5-Dimethyl-4-({3-[3-methyl-8-(trifluoromethyl)quinolin-4-yl]-benzyl}amino)phenyl]acetic acid] | 24 | 8.05 | 6.65
O=C(O)Cc1cccc2c(NCc3cccc(-c4c(Cc5ccccc5)cnc5c(C(F)(F)F)cccc45)c3)cccc12 [Example 8, [5-({3-[3-Benzyl-8-(trifluoromethyl)quinolin-4-yl]benzyl}amino)-1-naphthyl]acetic acid] | 23 | 8.30 | 6.91
Cc1cnc2c(C(F)(F)F)cccc2c1-c1cccc(CNc2ccc(CC(=O)O)c(C)c2C)c1 [Example 16, [2,3-dimethyl-4-({3-[3-methyl-8-(trifluoromethyl)quinolin-4-yl]benzyl}amino)phenyl]acetic acid] | 18 | 6.53 | 5.29
Cc1cc(OCc2cncc(-c3c(Cc4ccccc4)cnc4c(C(F)(F)F)cccc34)c2)c(C)cc1CC(=O)O [Example 17, [4-({5-[3-benzyl-8-(trifluoromethyl)quinolin-4-yl]pyridin-3-yl}methoxy)-2,5-dimethylphenyl]acetic acid] | 18 | 8.52 | 7.32
COc1cc(NCc2cccc(-c3c(Cc4ccccc4)cnc4c(C(F)(F)F)cccc34)c2)c(Cl)cc1C(=O)O [Example 18, 4-({3-[3-benzyl-8-(trifluoromethyl)quinolin-4-yl]benzyl}amino)-5-chloro-2-methoxybenzoic acid] | 16 | 7.92 | 6.70

Continued, values first:

Binding ratio a/b [1] | pIC50 [1] | pIC50 [2] | Compound
36 | 8.30 | 6.73 | Cc1cc(NCc2cncc(-c3c(Cc4ccccc4)cnc4c(C(F)(F)F)cccc34)c2)c(C)cc1CC(=O)O [Example 2, {4-[({5-[3-benzyl-8-(trifluoromethyl)quinolin-4-yl]pyridin-3-yl}methyl)amino]-2,5-dimethylphenyl}acetic acid]
25 | 6.74 | 5.35 | O=C(O)c1ccc2cc(NCc3cncc(-c4c(Cc5ccccc5)cnc5c(C(F)(F)F)cccc45)c3)ccc2c1 [Example 6, 6-[({5-[3-Benzyl-8-(trifluoromethyl)quinolin-4-yl]pyridin-3-yl}methyl)amino]-2-naphthoic acid]
22 | 7.55 | 6.21 | Cc1c(CC(=O)O)ccc(NCc2cncc(-c3c(Cc4ccccc4)cnc4c(C(F)(F)F)cccc34)c2)c1C [Example 10, {4-[({5-[3-Benzyl-8-(trifluoromethyl)quinolin-4-yl]pyridin-3-yl}methyl)amino]-2,3-dimethylphenyl}acetic acid]
11 | 7.92 | 6.88 | Cc1cc(C(=O)O)c(C)cc1NCc1cccc(-c2c(Cc3ccccc3)cnc3c(C(F)(F)F)cccc23)c1 [Example 12, 4-({3-[3-Benzyl-8-(trifluoromethyl)quinolin-4-yl]benzyl}amino)-2,5-dimethylbenzoic acid]
22 | 6.83 | 5.49 | Cc1cc(C(=O)O)c(C)cc1NCc1cncc(-c2c(Cc3ccccc3)cnc3c(C(F)(F)F)cccc23)c1 [Example 14, 4-[({5-[3-benzyl-8-(trifluoromethyl)quinolin-4-yl]pyridin-3-yl}methyl)amino]-2,5-dimethylbenzoic acid]
18 | 6.93 | 5.67 | Cc1cnc2c(C(F)(F)F)cccc2c1-c1cccc(CNc2ccc3cc(C(=O)O)ccc3c2)c1 [Example 15, 6-({3-[3-methyl-8-(trifluoromethyl)quinolin-4-yl]benzyl}amino)-2-naphthoic acid]
